This is an account of results in patent US20090047246A1, “NOVEL INHIBITORS OF HEPATITIS C VIRUS REPLICATION” (InterMune, Inc., priority 2007, published 2009).

The assay has as its target T1, HCV NS3 helicase (Hepatitis C virus genotype 1b, UniProt P26663).
T1 construct: full-length NS3 (1-631), purified at Array BioPharma
The assay can be described thus: HCV Helicase Prompt FRET Assay (Example A). It counts as biochemical. Conditions: read-out: IC50 Activity. The essentials:
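Initial unwinding rates, monitored as FAM fluorescence gain (ex 485, em 535) over ~30 min at room temperature, gave IC50 via 4- or 5-parameter logistic fits. Reactions: 50 nM quenched duplex, 250 nM capture strand, 300 μM ATP, 5–6 nM NS3 1-631 after 5 min compound preincubation, MOPS pH 7.0 buffer, 2% DMSO.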

Where [1] appears, read: HCV NS3 helicase, tables do not say whether Example A or Example B assay.
[2] abbreviates: Table 23, compounds made using Scheme 30.
The mark [3] stands for this setting: Table 25, compounds made using Scheme 32.
Where [4] appears, read: Table 26, compounds made using Scheme 33.
The mark [5] stands for this setting: Table 31, compounds made using Schemes 38-45.
[6] abbreviates: Table 32, compounds made using Schemes 46-49.
Setting [7] is: Table 33, compounds made using Scheme 50.

Where two headings read alike, the source gives them in different places.

T1 sequence (P26663 1027-1657): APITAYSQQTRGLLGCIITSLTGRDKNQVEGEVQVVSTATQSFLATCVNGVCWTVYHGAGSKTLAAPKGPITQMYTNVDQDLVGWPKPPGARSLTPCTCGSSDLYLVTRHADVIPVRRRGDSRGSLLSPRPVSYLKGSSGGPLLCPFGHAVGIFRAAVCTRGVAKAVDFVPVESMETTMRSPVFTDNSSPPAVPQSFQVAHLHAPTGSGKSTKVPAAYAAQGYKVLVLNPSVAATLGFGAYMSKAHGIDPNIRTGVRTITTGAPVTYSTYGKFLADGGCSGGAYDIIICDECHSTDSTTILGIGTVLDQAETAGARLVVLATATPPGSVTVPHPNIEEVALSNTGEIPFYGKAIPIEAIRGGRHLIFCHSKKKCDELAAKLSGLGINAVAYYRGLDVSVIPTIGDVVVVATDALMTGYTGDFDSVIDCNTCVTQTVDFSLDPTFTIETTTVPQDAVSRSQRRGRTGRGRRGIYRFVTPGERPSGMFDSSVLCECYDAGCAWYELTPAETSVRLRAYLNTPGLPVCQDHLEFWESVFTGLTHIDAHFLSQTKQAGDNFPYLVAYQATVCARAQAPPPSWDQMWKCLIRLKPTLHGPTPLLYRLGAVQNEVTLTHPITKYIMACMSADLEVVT

For `O=C(O)Cc1cn(Cc2ccc(Oc3cc(Cl)ccc3Cl)cc2)c2ccccc12` [Example 590], the IC50 under setting [1] was below 10 µM.

Consider `O=C(O)Cc1cn(Cc2ccc(Oc3ccc(C(F)(F)F)cc3C(F)(F)F)cc2)c2ccccc12` [Example 591], for which, under setting [2], the IC50 is below 10 µM.

With `O=C(O)Cc1cn(Cc2ccc(Oc3c(C(F)(F)F)cccc3C(F)(F)F)cc2)c2ccccc12` [Example 592], the IC50 under setting [2] lay in the range of 10 to 50 µM.

As to `O=C(O)Cc1cn(Cc2cccc(Oc3ccc(F)cc3F)c2)c2ccccc12` [Example 593], the IC50 under setting [2] is below 10 µM.

Consider `O=C(O)Cc1cn(Cc2cccc(Oc3c(F)cccc3F)c2)c2ccccc12` [Example 594], for which, under setting [2], the IC50 is below 10 µM.

With `O=C(O)Cc1cn(Cc2cccc(Oc3cccc(Cl)c3Cl)c2)c2ccccc12` [Example 595], the IC50 under setting [2] is below 10 µM.

In the case of `O=C(O)Cc1cn(Cc2cccc(Oc3ccc(Cl)cc3Cl)c2)c2ccccc12` [Example 596], under setting [2], the IC50 was below 10 µM.

Take `O=C(O)Cc1cn(Cc2cccc(Oc3ccc(C(F)(F)F)cc3C(F)(F)F)c2)c2ccccc12` [Example 597]: the IC50 under setting [2] was below 10 µM.

For `O=C(O)Cc1cn(Cc2cccc(Oc3cc(Cl)ccc3Cl)c2)c2ccccc12` [Example 599], the IC50 under setting [2] lay in the range of 10 to 50 µM.

In the case of `O=C(O)Cc1cn(Cc2cccc(Oc3c(Cl)cccc3Cl)c2)c2ccccc12` [Example 600], the IC50 under setting [2] lay in the range of 10 to 50 µM.

With `CCOC(=O)Cc1cn(Cc2ccc(Oc3cccc(Cl)c3)cc2)c2cc(-c3cccc(OC(C)=O)c3)ccc12` [Example 601], the IC50 under setting [1] was above 50 µM.

For the compound `CCOC(=O)Cc1cn(Cc2ccc(Oc3cccc(OC)c3)cc2)c2cc(-c3cccc(OC(C)=O)c3)ccc12` [Example 602], the IC50 under setting [1] lay within 10 to 50 µM.

Turning to `CCOC(=O)Cc1cn(Cc2ccc(Oc3cccc(F)c3)cc2)c2cc(-c3cccc(OC(C)=O)c3)ccc12` [Example 603], the IC50 under setting [1] is above 50 µM.

Regarding `CCOC(=O)Cc1cn(Cc2ccc(Oc3cccc(OCC)c3)cc2)c2cc(-c3cccc(OC(C)=O)c3)ccc12` [Example 604], the IC50 under setting [1] was above 50 µM.

As for `CCOC(=O)Cc1cn(Cc2ccc(Oc3ccc(Cl)cc3)cc2)c2cc(-c3cccc(OC(C)=O)c3)ccc12` [Example 605], the half-inhibitory concentration (IC50) under setting [1] was above 50 µM.

For `CCOC(=O)Cc1cn(Cc2ccc(Oc3ccc(C(F)(F)F)cc3)cc2)c2cc(-c3cccc(OC(C)=O)c3)ccc12` [Example 606], the IC50 under setting [1] lay in the range of 10 to 50 µM.

As for `CCOC(=O)Cc1cn(Cc2ccc(Oc3ccc(C(F)(F)F)cc3)cc2)c2cc(-c3cc(N)cc(N)c3)ccc12` [Example 608], under setting [3], the IC50 was 10 to 50 µM.

Turning to `CCOC(=O)Cc1cn(Cc2ccc(Oc3cccc(OCC)c3)cc2)c2cc(-c3cc(N)cc(N)c3)ccc12` [Example 609], under setting [3], the IC50 lay within 10 to 50 µM.

Take `CCOC(=O)Cc1cn(Cc2ccc(Oc3cccc(OC)c3)cc2)c2cc(-c3cc(N)cc(N)c3)ccc12` [Example 610]: under setting [3], the IC50 lay within 10 to 50 µM.

For `CCOC(=O)Cc1cn(Cc2ccc(Oc3cccc(Cl)c3)cc2)c2cc(-c3cc(N)cc(N)c3)ccc12` [Example 612], the IC50 under setting [3] is below 10 µM.

In the case of `CCOC(=O)Cc1cn(Cc2ccc(Oc3ccc(Cl)cc3)cc2)c2cc(-c3cc(N)cc(N)c3)ccc12` [Example 613], under setting [3], the IC50 was 10 to 50 µM.

With `O=C(O)Cc1cn(Cc2csc3ccc(Cl)cc23)c2cc(-c3ccccc3)ccc12` [Example 614], under setting [4], the IC50 is below 10 µM.

`Nc1ccc(CO)c(-c2ccc3c(CC(=O)O)cn(Cc4csc5ccc(Cl)cc45)c3c2)n1` [Example 615]: the IC50 under setting [4] lay within 10 to 50 µM.

In the case of `CCC(=O)Oc1cn(Cc2csc3ccc(Cl)cc23)c2cc(-c3ccccc3)ccc12` [Example 616], the IC50 under setting [4] is above 50 µM.

Regarding `CC(C)c1ccc(Cn2cc(CC(=O)O)c3ccc(-c4cc(N)cc(N)c4)cc32)cc1` [Example 619], the IC50 (Table 28, compounds made using Scheme 35) was below 10 µM.

Consider `Nc1ncc(C(=O)O)c(-c2ccc3c(CC(=O)O)cn(Cc4csc5ccc(Cl)cc45)c3c2)n1` [Example 621], for which the IC50 (Table 29, compounds made using Scheme 36) was above 50 µM.

With `O=C(O)Cc1cn(Cc2csc3ccc(Cl)cc23)c2cc(-c3cccc(O)c3)ccc12` [Example 625], the IC50 under setting [5] is below 10 µM.

In the case of `Cc1ccccc1-c1ccc2c(CC(=O)O)cn(Cc3csc4ccc(Cl)cc34)c2c1` [Example 626], the IC50 under setting [5] is below 10 µM.

In the case of `Cc1ccc(N)cc1-c1ccc2c(CC(=O)O)cn(Cc3csc4ccc(Cl)cc34)c2c1` [Example 627], under setting [5], the IC50 is below 10 µM.

As to `Cc1c(N)cc(N)cc1-c1ccc2c(CC(=O)O)cn(Cc3csc4ccc(Cl)cc34)c2c1` [Example 628], under setting [5], the IC50 is below 10 µM.

Regarding `Nc1cc(-c2ccc3c(CC(=O)O)cn(Cc4csc5ccc(Cl)cc45)c3c2)nc(N)n1` [Example 629], the IC50 under setting [5] was below 10 µM.

As for `Nc1ccnc(-c2ccc3c(CC(=O)O)cn(Cc4csc5ccc(Cl)cc45)c3c2)n1` [Example 630], the IC50 under setting [5] was below 10 µM.

As to `CCNc1nc(NCC)nc(-c2ccc3c(CC(=O)O)cn(Cc4csc5ccc(Cl)cc45)c3c2)n1` [Example 632], the IC50 under setting [5] was below 10 µM.

On to `Nc1nc(-c2ccc3c(CC(=O)O)cn(Cc4csc5ccc(Cl)cc45)c3c2)ncc1F` [Example 633], for which the IC50 under setting [5] lay within 10 to 50 µM.

As for `Nc1cc(N)nc(-c2ccc3c(CC(=O)O)cn(Cc4csc5ccc(Cl)cc45)c3c2)n1` [Example 635], the IC50 under setting [5] was in the range of 10 to 50 µM.

Take `Nc1nc(Cl)cc(-c2ccc3c(CC(=O)O)cn(Cc4csc5ccc(Cl)cc45)c3c2)n1` [Example 636]: under setting [5], the IC50 was below 10 µM.

Consider `Nc1nc(Cl)c(C=O)c(-c2ccc3c(CC(=O)O)cn(Cc4csc5ccc(Cl)cc45)c3c2)n1` [Example 637], for which the IC50 under setting [5] was below 10 µM.

Consider `Nc1cc(-c2ccc3c(CC(=O)O)cn(Cc4csc5ccc(Cl)cc45)c3c2)cc(N)n1` [Example 638], for which the IC50 under setting [5] fell in the range of 10 to 50 µM.

Regarding `Nc1nc(-c2ccc3c(CC(=O)O)cn(Cc4csc5ccc(Cl)cc45)c3c2)c2nc[nH]c2n1` [Example 639], the IC50 under setting [5] lay in the range of 10 to 50 µM.

`CNc1nc(-c2ccc3c(CC(=O)O)cn(Cc4csc5ccc(Cl)cc45)c3c2)nc2[nH]cnc12` [Example 640]: the IC50 under setting [5] was below 10 µM.

For the compound `NC(=O)c1ccc(N)cc1-c1ccc2c(CC(=O)O)cn(Cc3csc4ccc(Cl)cc34)c2c1` [Example 641], under setting [5], the IC50 is 10 to 50 µM.

Regarding `COC(=O)c1ccc(N)cc1-c1ccc2c(CC(=O)O)cn(Cc3csc4ccc(Cl)cc34)c2c1` [Example 642], the IC50 under setting [5] is below 10 µM.

Turning to `CNc1cc(NC)cc(-c2ccc3c(CC(=O)O)cn(Cc4csc5ccc(Cl)cc45)c3c2)c1` [Example 646], the IC50 under setting [5] was below 10 µM.

Consider `CNc1cc(N)cc(-c2ccc3c(CC(=O)O)cn(Cc4csc5ccc(Cl)cc45)c3c2)c1` [Example 647], for which the IC50 under setting [5] was below 10 µM.

For `CC(=O)Nc1cc(NC(C)=O)cc(-c2ccc3c(CC(=O)O)cn(Cc4csc5ccc(Cl)cc45)c3c2)c1` [Example 648], the IC50 under setting [5] was below 10 µM.

For the compound `CC(C)Nc1cc(NC(C)C)cc(-c2ccc3c(CC(=O)O)cn(Cc4csc5ccc(Cl)cc45)c3c2)c1` [Example 649], the IC50 under setting [5] is below 10 µM.

As to `CC(C)Nc1cc(N)cc(-c2ccc3c(CC(=O)O)cn(Cc4csc5ccc(Cl)cc45)c3c2)c1` [Example 650], under setting [5], the half-inhibitory concentration (IC50) is below 10 µM.

On to `Nn1cc(-c2ccc3c(CC(=O)O)cn(Cc4csc5ccc(Cl)cc45)c3c2)c(=O)n(N)c1=O` [Example 651], for which the IC50 under setting [5] is above 50 µM.

Turning to `Nn1c(=O)[nH]cc(-c2ccc3c(CC(=O)O)cn(Cc4csc5ccc(Cl)cc45)c3c2)c1=O` [Example 652], the IC50 under setting [5] was in the range of 10 to 50 µM.

For the compound `Nn1cc(-c2ccc3c(CC(=O)O)cn(Cc4csc5ccc(Cl)cc45)c3c2)c(=O)[nH]c1=O` [Example 653], under setting [5], the IC50 fell in the range of 10 to 50 µM.

On to `NC(=O)c1nc(N)sc1-c1ccc2c(CC(=O)O)cn(Cc3csc4ccc(Cl)cc34)c2c1` [Example 654], for which, under setting [6], the IC50 is below 10 µM.

For `NC(=O)c1nc(N)sc1-c1ccc2c(CC(=O)O)cn(Cc3csc4ccc(Cl)cc34)c2c1` [Example 655], the IC50 under setting [6] was 10 to 50 µM.

With `Nc1ncc(-c2ccc3c(CC(=O)O)cn(Cc4csc5ccc(Cl)cc45)c3c2)s1` [Example 656], the IC50 under setting [6] lay in the range of 10 to 50 µM.

As to `CC(C)(C)OC(=O)Nc1ncc(-c2ccc3c(CC(=O)O)cn(Cc4csc5ccc(Cl)cc45)c3c2)s1` [Example 657], the IC50 under setting [6] is below 10 µM.

`CC(C)(C)OC(=O)Nc1nnc(-c2ccc3c(CC(=O)O)cn(Cc4csc5ccc(Cl)cc45)c3c2)s1` [Example 658]: the IC50 under setting [6] was below 10 µM.

In the case of `CC(C)(C)OC(=O)Nc1nnc(-c2ccc3c(CC(=O)O)cn(Cc4csc5ccc(Cl)cc45)c3c2)s1` [Example 659], the IC50 under setting [6] was 10 to 50 µM.

As to `Nc1nnc(-c2ccc3c(CC(=O)O)cn(Cc4csc5ccc(Cl)cc45)c3c2)s1` [Example 660], the IC50 under setting [6] lay within 10 to 50 µM.

As for `NC(=O)c1sccc1-c1ccc2c(CC(=O)O)cn(Cc3csc4ccc(Cl)cc34)c2c1` [Example 661], the IC50 under setting [6] was in the range of 10 to 50 µM.

In the case of `O=C(O)Cc1cn(Cc2csc3ccc(Cl)cc23)c2cc(-c3c[nH]c(=O)[nH]c3=O)ccc12` [Example 662], the IC50 under setting [6] fell in the range of 10 to 50 µM.

Consider `N#Cc1ccc2c(CC(=O)O)cn(Cc3csc4ccc(Cl)cc34)c2c1` [Example 663], for which the IC50 under setting [6] was in the range of 10 to 50 µM.

As for `CC(C)c1ccc(Cn2c(C#N)c(CC(=O)O)c3ccccc32)cc1` [Example 664], the IC50 under setting [6] is 10 to 50 µM.

For the compound `CC(C)c1ccc(Cn2c(C(N)=O)c(CC(=O)O)c3ccccc32)cc1` [Example 665], the IC50 under setting [6] was 10 to 50 µM.

As to `Nc1cc(-c2ccc3c(CC(=O)O)cn(Cc4csc5ccc(Cl)cc45)c3c2)ncn1` [Example 666], under setting [7], the half-inhibitory concentration (IC50) lay within 10 to 50 µM.

On to `Nc1ccnc(-c2ccc3c(CC(=O)O)cn(Cc4csc5ccc(Cl)cc45)c3c2)n1` [Example 667], for which the IC50 under setting [7] was in the range of 10 to 50 µM.
